Experimental data as given in patent publication US20250290117A1, “MOLECULAR PHENOTYPIC ANTIMICROBIAL SUSCEPTIBILITY TESTING” (priority 2024, published 2025).

Legend:
Type in all cases: cell-based
Escherichia coli [1] = test: Molecular phenotypic antimicrobial susceptibility test (extraction or DNA purification prior to PCR)
Summary of the method: (§1)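 Semi-quantitative PCR read-out: growth was taken as resistance and its absence as sensitivity, with DNA either purified (e.g. bead-based) or amplified directly from lysed sample without extraction. Before PCR, 0.5 McFarland dilutions of incubated clinical specimens were held 12-16 hours with breakpoint-level antimicrobials in culture media, beside a drug-free control.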

Escherichia coli [2] = test: Traditional culture-based antimicrobial susceptibility test
Summary of the method: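 Susceptibility of each E. coli isolate to each antimicrobial was determined the standard way: pathogens were grown, isolated and then exposed to the agents.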

[3] = tested on: pathogens of clinical samples; test: Molecular phenotypic antimicrobial susceptibility test of clinical samples, extraction DNA purification step prior to PCR (Table 6)
Summary of the method: as §1

[4] = tested on: pathogens of clinical samples; test: Molecular phenotypic antimicrobial susceptibility test of clinical samples, direct PCR without a separate DNA purification step (Table 6)
Summary of the method: as §1

[5] = E. coli, clinical sample of r10-r24
[6] = E. coli, clinical sample of r158-r172
[7] = K. aerogenes, clinical sample of r136-r150
[8] = K. pneumoniae, clinical sample of r121-r135
[9] = M. morganii, clinical sample of r55-r69
[10] = M. morganii, clinical sample of r70-r84
[11] = P. mirabilis, clinical sample of r25-r39
[12] = P. mirabilis, clinical sample of r40-r54

In the case of `Cc1nnc(SCC2=C(C(=O)O)N3C(=O)[C@@H](NC(=O)Cn4cnnn4)[C@H]3SC2)s1` [Cefazolin], the “Ct at Sensitive Breakpoint” value (Escherichia coli [1]; E. coli isolate 1, Ct at control (average) 21.238) is reported as 20.925, the “Molecular Antimicrobial Susceptibility Result” value (Escherichia coli [1]; E. coli isolate 1, at sensitive breakpoint) is reported as “Resistant” and the “Ct at Sensitive Breakpoint” value (Escherichia coli [1]; E. coli isolate 2, Ct at control (average) 21.270) is reported as 19.313. The “Molecular Antimicrobial Susceptibility Result” value (Escherichia coli [1]; E. coli isolate 2, at sensitive breakpoint) was “Resistant”, the “Ct at Sensitive Breakpoint” value (Escherichia coli [1]; E. coli isolate 3, Ct at control (average) 22.0995) was 20.834 and the “Molecular Antimicrobial Susceptibility Result” value (Escherichia coli [1]; E. coli isolate 3, at sensitive breakpoint) was “Resistant”. For the same compound, the “Ct at Sensitive Breakpoint” value (Escherichia coli [1]; E. coli isolate 4, Ct at control (average) 17.5733) was 17.23, the “Molecular Antimicrobial Susceptibility Result” value (Escherichia coli [1]; E. coli isolate 4, at sensitive breakpoint) was “Resistant” and the “Ct at Sensitive Breakpoint” value (Escherichia coli [1]; E. coli isolate 5, Ct at control (average) 21.0933) was 25.36. For the same compound, the “Molecular Antimicrobial Susceptibility Result” value (Escherichia coli [1]; E. coli isolate 5, at sensitive breakpoint) was “Sensitive (Antimicrobial wells with pathogen load detected below the control wells (typically >2 cycle thresholds later) may be reported as Sensitive)”, the “Traditional Culture Results” value (Escherichia coli [2]; E. coli #1 - WDCM 00090 - 6.2×E3) was “Sensitive” and the “Traditional Culture Results” value (Escherichia coli [2]; E. coli #2 - WDCM 00090 - 6.2×E3) was “Sensitive”. For the same compound, the “Traditional Culture Result” value (Escherichia coli [2]; E. coli isolate 1 (Table 3)) was “Resistant”, the “Traditional Culture Result” value (Escherichia coli [2]; E. coli isolate 2 (Table 3)) was “Resistant” and the “Traditional Culture Result” value (Escherichia coli [2]; E. coli isolate 3 (Table 3)) was “Resistant”. The “Traditional Culture Result” value (Escherichia coli [2]; E. coli isolate 4 (Table 3)) was “Resistant”, the “Traditional Culture Result” value (Escherichia coli [2]; E. coli isolate 5 (Table 3)) was “Sensitive” and the “Traditional Culture Result” value (Escherichia coli [2]; E. coli isolate JJ1887) was “Resistant”. For the same compound, the “Molecular Antibiotic Susceptibility Result” value [3, 5] was “Sensitive (Antimicrobial wells with pathogen load detected below the control wells (typically >2 cycle thresholds later) may be reported as Sensitive)”, the “Molecular Antibiotic Susceptibility Result” value [3, 6] was “Sensitive (Antimicrobial wells with pathogen load detected below the control wells (typically >2 cycle thresholds later) may be reported as Sensitive)” and the “Molecular Antibiotic Susceptibility Result” value [3, 7] was “Resistant”. For the same compound, the “Molecular Antibiotic Susceptibility Result” value [3, 8] was “Sensitive (Antimicrobial wells with pathogen load detected below the control wells (typically >2 cycle thresholds later) may be reported as Sensitive)”, the “Molecular Antibiotic Susceptibility Result” value [3, 9] was “Resistant” and the “Molecular Antibiotic Susceptibility Result” value [3, 10] was “Resistant”. The “Molecular Antibiotic Susceptibility Result” value [3, 11] was “Resistant”, the “Molecular Antibiotic Susceptibility Result” value [3, 12] was “Sensitive (Antimicrobial wells with pathogen load detected below the control wells (typically >2 cycle thresholds later) may be reported as Sensitive)” and the “Molecular Antibiotic Susceptibility Result” value [4, 5] was “Sensitive (Antimicrobial wells with pathogen load detected below the control wells (typically >2 cycle thresholds later) may be reported as Sensitive)”. For the same compound, the “Molecular Antibiotic Susceptibility Result” value [4, 6] was “Sensitive (Antimicrobial wells with pathogen load detected below the control wells (typically >2 cycle thresholds later) may be reported as Sensitive)”, the “Molecular Antibiotic Susceptibility Result” value [4, 7] was “Sensitive (Antimicrobial wells with pathogen load detected below the control wells (typically >2 cycle thresholds later) may be reported as Sensitive)” and the “Molecular Antibiotic Susceptibility Result” value [4, 8] was “Sensitive (Antimicrobial wells with pathogen load detected below the control wells (typically >2 cycle thresholds later) may be reported as Sensitive)”. For the same compound, the “Molecular Antibiotic Susceptibility Result” value [4, 9] was “Resistant”, the “Molecular Antibiotic Susceptibility Result” value [4, 10] was “Resistant” and the “Molecular Antibiotic Susceptibility Result” value [4, 11] was “Sensitive (Antimicrobial wells with pathogen load detected below the control wells (typically >2 cycle thresholds later) may be reported as Sensitive)”. For the same compound, the “Molecular Antibiotic Susceptibility Result” value [4, 12] was “Sensitive (Antimicrobial wells with pathogen load detected below the control wells (typically >2 cycle thresholds later) may be reported as Sensitive)”.
